Measurements as given in article PMC5874719, “A π-Halogen Bond of Dibenzofuranones with the Gatekeeper Phe113 in Human Protein Kinase CK2 Leads to Potent Tight Binding Inhibitors” (Pharmaceuticals, 2018).
Like-named read-outs stand apart in the source and are kept apart here.

Tests used:
CAMKK2 = biological target: T1, CAMKK2 (Homo sapiens, UniProt Q96RR4); experiment: kinase selectivity profile; format: biochemical; settings: 10 µM inhibitor, 10 µM ATP
T1 construct: purchased Reaction Biology Corp
Excerpt: (§1) This demands further investigation.

FLT3 = biological target: T2, FLT3 (Homo sapiens, UniProt P36888); experiment: kinase selectivity profile; format: biochemical; settings: 10 µM inhibitor, 10 µM ATP
T2 construct: purchased Reaction Biology Corp
Excerpt: as §1

C-Met = C-Met (Homo sapiens, UniProt P08581); settings: 10 µM inhibitor, 10 µM ATP
Procedure: (§2) For this purpose 61 kinases from different representative subgroups (and CK2α and CK2α’) were tested. Testing was performed with inhibitor concentrations of 10 µM and an ATP concentration of 10 μM. The residual enzyme activity as obtained was set in relation to a control without inhibitor.

FLT4/VEGFR3 [1] = biological target: T3, FLT4/VEGFR3 (Homo sapiens, UniProt P35916); settings: 10 µM inhibitor, 10 µM ATP
Procedure: as §2

KDR/VEGFR2 [2] = biological target: T4, KDR/VEGFR2 (Homo sapiens, UniProt P35968); settings: 10 µM inhibitor, 10 µM ATP
Procedure: as §2

PIM1 [3] = biological target: T5, PIM1 (Homo sapiens, UniProt P11309); settings: 10 µM inhibitor, 10 µM ATP
Procedure: as §2

PKA = PKA (Homo sapiens, UniProt P17612); settings: 10 µM inhibitor, 10 µM ATP
Procedure: as §2

LCK [4] = biological target: T6, LCK (Homo sapiens, UniProt P06239); experiment: biochemical
Procedure: as §2

CK2α = settings: towards CK2α, radiometric assay; cited from earlier work
[5] = biological target: T7, human protein kinase CK2 holoenzyme (CK2α2β2) (Homo sapiens, UniProt P68400); design: method as in PMID 22387500; settings: cited from earlier work
T7 construct: made in house

Aurora A = biological target: T8, Aurora A (Homo sapiens, UniProt O14965); design: method as in PMID 22387500; settings: 10 µM inhibitor; cited from earlier work
T8 construct: purchased Reaction Biology Corp
T8 sequence (O14965 1-403): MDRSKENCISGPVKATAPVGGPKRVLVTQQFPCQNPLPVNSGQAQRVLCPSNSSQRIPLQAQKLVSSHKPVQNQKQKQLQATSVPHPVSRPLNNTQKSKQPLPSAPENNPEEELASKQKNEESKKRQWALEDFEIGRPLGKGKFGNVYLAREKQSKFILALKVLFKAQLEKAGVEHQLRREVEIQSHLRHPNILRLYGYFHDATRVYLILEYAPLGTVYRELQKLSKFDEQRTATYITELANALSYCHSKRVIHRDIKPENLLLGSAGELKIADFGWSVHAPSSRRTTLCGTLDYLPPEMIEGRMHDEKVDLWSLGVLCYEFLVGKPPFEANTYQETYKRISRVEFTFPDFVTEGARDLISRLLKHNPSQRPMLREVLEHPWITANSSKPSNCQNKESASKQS

SKG1 = biological target: T9, SKG1 (Homo sapiens, UniProt O00141); design: method as in PMID 22387500; settings: 10 µM inhibitor; cited from earlier work
T9 construct: purchased Reaction Biology Corp

PIM1 [6] = biological target: T5, PIM1; design: method as in PMID 22387500; settings: 10 µM inhibitor; cited from earlier work
LCK [7] = biological target: T6, LCK; design: method as in PMID 22387500; settings: 10 µM inhibitor; cited from earlier work
PKD/PRKD2 = system: PKD/PRKD2; design: method as in PMID 22387500; settings: 10 µM inhibitor; cited from earlier work
FLT4/VEGFR3 [8] = biological target: T3, FLT4/VEGFR3; design: purchased Reaction Biology Corp; method as in PMID 22387500; settings: 10 µM inhibitor; cited from earlier work
KDR/VEGFR2 [9] = biological target: T4, KDR/VEGFR2; design: purchased Reaction Biology Corp; method as in PMID 22387500; settings: 10 µM inhibitor; cited from earlier work

T5 sequence (P11309 whole entry): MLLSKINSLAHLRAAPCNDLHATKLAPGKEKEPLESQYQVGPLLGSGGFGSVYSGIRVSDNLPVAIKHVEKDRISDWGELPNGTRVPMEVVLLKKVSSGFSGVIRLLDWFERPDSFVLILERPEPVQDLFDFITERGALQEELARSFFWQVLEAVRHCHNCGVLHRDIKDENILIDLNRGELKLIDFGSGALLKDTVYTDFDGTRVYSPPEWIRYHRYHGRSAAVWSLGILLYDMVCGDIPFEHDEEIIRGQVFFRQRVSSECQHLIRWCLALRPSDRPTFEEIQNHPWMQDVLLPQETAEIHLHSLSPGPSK
T7 sequence (P68400 whole entry): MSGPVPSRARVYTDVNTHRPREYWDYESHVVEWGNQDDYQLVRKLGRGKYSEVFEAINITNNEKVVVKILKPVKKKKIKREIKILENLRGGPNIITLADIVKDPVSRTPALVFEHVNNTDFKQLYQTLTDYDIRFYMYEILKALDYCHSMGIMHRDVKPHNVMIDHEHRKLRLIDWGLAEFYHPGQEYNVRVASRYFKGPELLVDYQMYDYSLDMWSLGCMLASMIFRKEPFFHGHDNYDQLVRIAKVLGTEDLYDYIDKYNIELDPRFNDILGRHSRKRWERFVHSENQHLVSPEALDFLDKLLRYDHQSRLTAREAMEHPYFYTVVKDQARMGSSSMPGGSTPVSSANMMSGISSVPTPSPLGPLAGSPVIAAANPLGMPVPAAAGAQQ
T7 sequence (P67870 whole entry partner): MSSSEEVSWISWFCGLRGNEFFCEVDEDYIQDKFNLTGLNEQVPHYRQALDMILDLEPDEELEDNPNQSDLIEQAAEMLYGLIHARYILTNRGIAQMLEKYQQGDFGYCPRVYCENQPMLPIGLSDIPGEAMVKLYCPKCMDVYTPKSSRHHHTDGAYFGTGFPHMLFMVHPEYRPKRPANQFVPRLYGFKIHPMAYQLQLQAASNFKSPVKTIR
T1 sequence (Q96RR4 whole entry): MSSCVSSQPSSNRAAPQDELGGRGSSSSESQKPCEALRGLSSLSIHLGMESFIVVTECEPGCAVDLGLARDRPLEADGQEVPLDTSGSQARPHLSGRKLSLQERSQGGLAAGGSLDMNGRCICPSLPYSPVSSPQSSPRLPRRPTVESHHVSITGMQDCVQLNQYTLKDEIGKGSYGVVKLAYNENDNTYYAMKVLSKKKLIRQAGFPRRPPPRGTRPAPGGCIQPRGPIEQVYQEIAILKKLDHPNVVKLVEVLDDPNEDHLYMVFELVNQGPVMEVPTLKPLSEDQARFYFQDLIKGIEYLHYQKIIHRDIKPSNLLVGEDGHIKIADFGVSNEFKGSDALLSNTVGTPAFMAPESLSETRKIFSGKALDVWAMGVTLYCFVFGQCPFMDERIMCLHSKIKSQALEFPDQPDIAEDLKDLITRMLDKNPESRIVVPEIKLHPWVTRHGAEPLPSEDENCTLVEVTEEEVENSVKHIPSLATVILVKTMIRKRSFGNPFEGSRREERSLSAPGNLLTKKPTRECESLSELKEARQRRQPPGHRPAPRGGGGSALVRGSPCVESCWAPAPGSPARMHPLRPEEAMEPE
T2 sequence (P36888 27-993): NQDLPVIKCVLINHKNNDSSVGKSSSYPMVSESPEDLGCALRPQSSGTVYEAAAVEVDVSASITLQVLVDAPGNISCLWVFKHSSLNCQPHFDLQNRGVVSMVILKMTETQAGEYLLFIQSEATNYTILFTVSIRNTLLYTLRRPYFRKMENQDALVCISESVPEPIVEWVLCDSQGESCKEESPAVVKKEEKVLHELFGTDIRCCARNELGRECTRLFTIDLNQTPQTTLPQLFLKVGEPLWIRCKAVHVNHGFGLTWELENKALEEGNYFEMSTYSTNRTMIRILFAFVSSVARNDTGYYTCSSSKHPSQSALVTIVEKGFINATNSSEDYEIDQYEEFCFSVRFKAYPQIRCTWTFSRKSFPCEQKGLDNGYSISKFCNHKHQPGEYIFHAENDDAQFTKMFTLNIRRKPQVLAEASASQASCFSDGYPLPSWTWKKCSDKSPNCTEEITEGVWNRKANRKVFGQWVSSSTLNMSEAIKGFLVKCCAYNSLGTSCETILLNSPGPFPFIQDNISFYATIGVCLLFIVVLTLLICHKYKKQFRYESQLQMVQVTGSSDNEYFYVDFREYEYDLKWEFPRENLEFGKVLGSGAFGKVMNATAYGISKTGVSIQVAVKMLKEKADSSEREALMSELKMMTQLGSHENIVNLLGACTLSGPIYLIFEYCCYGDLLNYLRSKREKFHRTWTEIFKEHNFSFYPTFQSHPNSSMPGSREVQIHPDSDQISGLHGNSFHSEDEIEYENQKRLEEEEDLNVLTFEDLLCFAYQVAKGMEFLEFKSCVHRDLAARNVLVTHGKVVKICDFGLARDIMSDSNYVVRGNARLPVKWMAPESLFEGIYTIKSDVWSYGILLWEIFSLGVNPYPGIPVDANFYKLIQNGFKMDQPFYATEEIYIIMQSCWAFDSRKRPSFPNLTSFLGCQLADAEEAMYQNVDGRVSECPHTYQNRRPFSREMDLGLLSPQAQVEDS
T4 sequence (P35968 20-1356): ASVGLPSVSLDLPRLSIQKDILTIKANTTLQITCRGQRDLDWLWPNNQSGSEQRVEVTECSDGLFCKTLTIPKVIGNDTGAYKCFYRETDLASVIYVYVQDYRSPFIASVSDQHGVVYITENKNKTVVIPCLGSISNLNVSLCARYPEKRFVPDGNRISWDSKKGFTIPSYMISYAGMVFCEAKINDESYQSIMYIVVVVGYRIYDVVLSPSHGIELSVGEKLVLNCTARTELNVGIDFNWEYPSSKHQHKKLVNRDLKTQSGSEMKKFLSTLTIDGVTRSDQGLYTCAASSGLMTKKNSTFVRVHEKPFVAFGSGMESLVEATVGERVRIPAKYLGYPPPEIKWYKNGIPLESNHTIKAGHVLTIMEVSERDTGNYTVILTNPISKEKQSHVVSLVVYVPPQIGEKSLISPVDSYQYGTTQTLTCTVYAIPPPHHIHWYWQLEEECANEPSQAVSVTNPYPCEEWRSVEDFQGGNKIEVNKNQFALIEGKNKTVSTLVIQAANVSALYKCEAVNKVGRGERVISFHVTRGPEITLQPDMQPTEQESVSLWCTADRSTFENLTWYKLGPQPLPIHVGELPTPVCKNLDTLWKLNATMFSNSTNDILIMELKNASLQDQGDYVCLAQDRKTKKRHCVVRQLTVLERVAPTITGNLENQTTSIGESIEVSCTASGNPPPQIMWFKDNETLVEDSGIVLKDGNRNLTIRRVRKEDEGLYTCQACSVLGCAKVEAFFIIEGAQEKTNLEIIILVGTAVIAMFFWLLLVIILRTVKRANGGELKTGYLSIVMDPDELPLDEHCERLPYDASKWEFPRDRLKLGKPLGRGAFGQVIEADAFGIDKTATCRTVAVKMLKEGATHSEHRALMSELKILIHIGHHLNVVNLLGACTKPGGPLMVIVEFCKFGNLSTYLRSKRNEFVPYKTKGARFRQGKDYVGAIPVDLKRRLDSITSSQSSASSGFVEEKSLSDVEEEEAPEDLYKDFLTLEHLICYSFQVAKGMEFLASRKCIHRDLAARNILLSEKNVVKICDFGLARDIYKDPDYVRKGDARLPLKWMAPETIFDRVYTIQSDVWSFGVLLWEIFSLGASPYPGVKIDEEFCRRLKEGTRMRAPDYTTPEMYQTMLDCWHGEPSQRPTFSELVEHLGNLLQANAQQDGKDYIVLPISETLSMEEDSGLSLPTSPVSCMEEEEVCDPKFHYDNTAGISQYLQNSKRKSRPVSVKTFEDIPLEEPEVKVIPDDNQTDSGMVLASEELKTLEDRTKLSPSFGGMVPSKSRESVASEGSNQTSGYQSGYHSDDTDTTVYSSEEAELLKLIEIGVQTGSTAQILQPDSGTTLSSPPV
T6 sequence (P06239 whole entry): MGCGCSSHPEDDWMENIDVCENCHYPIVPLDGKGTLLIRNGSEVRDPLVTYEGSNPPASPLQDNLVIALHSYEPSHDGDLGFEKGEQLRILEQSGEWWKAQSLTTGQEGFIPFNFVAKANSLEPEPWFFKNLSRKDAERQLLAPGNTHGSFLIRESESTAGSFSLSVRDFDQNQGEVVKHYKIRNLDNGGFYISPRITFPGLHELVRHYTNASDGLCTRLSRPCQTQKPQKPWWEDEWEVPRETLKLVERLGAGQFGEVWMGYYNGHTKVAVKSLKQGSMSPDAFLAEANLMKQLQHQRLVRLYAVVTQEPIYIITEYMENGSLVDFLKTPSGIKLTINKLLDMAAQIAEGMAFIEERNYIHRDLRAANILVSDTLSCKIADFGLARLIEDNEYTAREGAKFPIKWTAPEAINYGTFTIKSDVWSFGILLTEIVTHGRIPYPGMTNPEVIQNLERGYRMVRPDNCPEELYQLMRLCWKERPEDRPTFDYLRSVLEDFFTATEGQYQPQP
T9 sequence (O00141 whole entry): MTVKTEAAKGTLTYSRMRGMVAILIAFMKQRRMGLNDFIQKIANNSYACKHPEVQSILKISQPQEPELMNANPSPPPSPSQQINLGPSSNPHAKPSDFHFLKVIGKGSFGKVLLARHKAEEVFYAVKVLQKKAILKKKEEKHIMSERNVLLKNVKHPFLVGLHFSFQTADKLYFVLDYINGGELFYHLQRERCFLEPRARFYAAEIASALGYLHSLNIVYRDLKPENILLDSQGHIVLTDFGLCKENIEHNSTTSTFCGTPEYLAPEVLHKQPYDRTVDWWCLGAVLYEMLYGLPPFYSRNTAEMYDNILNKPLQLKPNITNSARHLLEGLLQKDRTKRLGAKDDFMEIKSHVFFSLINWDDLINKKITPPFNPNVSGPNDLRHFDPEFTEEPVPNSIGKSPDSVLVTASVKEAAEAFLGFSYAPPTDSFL

Row | kinase inhibited more than 70% at 10 µM concentration (CAMKK2) | kinase inhibited more than 70% at 10 µM concentration (FLT3) | kinase inhibited more than 70% at 10 µM concentration (C-Met) | kinase inhibited more than 70% at 10 µM concentration (FLT4/VEGFR3 [1]) | kinase inhibited more than 70% at 10 µM concentration (KDR/VEGFR2 [2]) | kinase inhibited more than 70% at 10 µM concentration (PIM1 [3]) | kinase inhibited more than 70% at 10 µM concentration (PKA) | inhibition at 10 µM (LCK [4]) [%] | SMILES | IC50 (CK2α) [nM] | Ki ([5]; ATP concentrations 6 µM to 400 µM) [nM] | IC50 ([5]; earlier work of the authors) [nM] | kinase inhibited more than 70% at 10 µM concentration (Aurora A) | kinase inhibited more than 70% at 10 µM concentration (SKG1) | kinase inhibited more than 70% at 10 µM concentration (PIM1 [6]) | kinase inhibited more than 70% at 10 µM concentration (LCK [7]) | kinase inhibited more than 70% at 10 µM concentration (PKD/PRKD2) | kinase inhibited more than 70% at 10 µM concentration (FLT4/VEGFR3 [8]) | kinase inhibited more than 70% at 10 µM concentration (KDR/VEGFR2 [9])
1 | CAMKK2 | FLT3 |  |  |  |  |  |  | COc1ccc(N/C=C2\C(=O)CCc3c2oc2cc(Cl)c(O)c(Cl)c32)cc1 [4a, 7,9-dichloro-1,2-dihydro-8-hydroxy-4-[(4-methoxyphenylamino)methylene]dibenzo[b,d]furan-3(2H)-one] |  |  |  |  |  |  |  |  |  | 
2 | CAMKK2 | FLT3 | C-Met | FLT4/VEGFR3 | KDR/VEGFR2 | PIM1 | PKA | 68 | COc1ccc(/N=C/c2c(O)ccc3c2oc2cc(Cl)c(O)c(Cl)c23)cc1 [compound 5, (E)-1,3-dichloro-6-[(4-methoxyphenylimino)methyl]dibenzo[b,d]furan-2,7-diol] | 7 |  |  |  |  |  |  |  |  | 
3 |  |  |  |  |  |  |  |  | Cc1ccc(NC=C2C(=O)CCc3c2oc2c(Cl)c(Cl)c(O)cc32)cc1 [4b, 6,7-dichloro-1,4-dihydro-8-hydroxy-4-[(4-methylphenylamino)methylene]dibenzo[b,d]furan-3(2H)-one] |  | 15 | 29 | Aurora A | SKG1 | PIM1 | LCK | PKD/PRKD2 | FLT4/VEGFR3 | KDR/VEGFR2
